{
  "source": "patent US20250268980A1",
  "about": "“AN ANTICANCER THERAPY TARGETING RAS AND OTHER ONCOGENIC SIGNALS BY INHIBITION OF DYNAMIC BLEBBING AND/OR SEPTINS” (THE BOARD OF REGENTS OF THE UNIVERSITY OF TEXAS SYSTEM, priority 2022, published 2025)",
  "system": "cortical septin structures in MV3 cells",
  "experiment": "Cortical septin localization (SEPT6-GFP) in MV3 cells",
  "type": "cell-based, human",
  "conditions": "MV3 SEPT6-GFP; WGA (50 ug/ml), VitroGel, H1152 (1 μM), NSC668394 (10 μM)",
  "procedure": "Cells Embedded in 3D Collagen.\nCells Grown in VitroGel Coffins. VitroGel coffins were prepared by embedding MV3 or A375 cells in VitroGel 3D or RGD at 1:1 dilution according to manufacturer's instructions (TheWell Biosciences, sku #TWG001). […] A 1:1 solution of VitroGel and VitroGel Dilution Solution was made and added to cell suspension at a ratio of 4:1 (VitroGel: cells) using gentle pipetting until well-mixed (with care taken not to form bubbles). Cell/VitroGel solution was transferred to an 8-well uncoated ibidi μ-slide (ibidi cat #80821) at 100 μl/well, spread over the bottom of wells with a pipette tip, and allowed to polymerize at room temperature for 15 minutes. The remainder of the well was then filled with 10% FBS DMEM and slide was stored at 37° C. and 5% CO2 for either 24 hrs for viability assays, 3 hrs for ERK activity assays, or 1 hour for visualization of septins/PI3K activity.\n3D Light-Sheet Imaging. […] All images were saved in the OME-TIFF format.\n3D Cell Image Analysis. Cell morphology and septin localization were analyzed principally via u-shape3D similar to the protocol described in Driscoll et al. Nature Methods. 16, 1037-1044 (2019), the disclosure of which is incorporated herein in its entirety. Briefly, 3D images were first deconvolved using either a Richardson-Lucy or Wiener algorithm with an experimentally measured point spread function. […] Cell surfaces were then represented as triangle meshes, and the mean surface curvature at every triangle was calculated according to methods described in Driscoll et al. Nature Methods. […] Septin and NRAS localization was measured from fluorescence images by extending a sphere of either 1 μm (for septins) or 2 μm (for NRAS) about each mesh triangle and mapping to the triangle the average intensity both within that sphere and the cell. Image intensity was not depth normalized prior to analysis, but was instead measured from the raw, undeconvolved image. […]\nCortical septin levels were quantified by measuring the mean cytoplasmic intensity of each cell using hand-drawn ROIs that excluded nuclei (performed with the FIJI ImageJ package), and then calculating for each cell its fraction of cortical voxels (intracellular voxels within 0.96 μm of the u-Shape3D-derived surface) that were higher than that cell's mean cytoplasmic intensity (performed using a MATLAB script). NRAS enrichment at the surface was quantified by first calculating the total amount of intracellular signal expected to be within 0.96 μm of the surface if the cell's signal was homogenously distributed between all voxels, and then calculating the percent change between this value and the observed value for each cell. […]",
  "data": [
    {"compound": "Cc1cncc2cccc(S(=O)(=O)N3CCCNC[C@@H]3C)c12", "note": "[H1152]", "values": [
      {"measurement": "septin localization (cortical levels)", "value": "pronounced effects on septin localization, reducing cortical levels"}
    ]}
  ]
}
